Experimental data from patent publication US4548923A, “Muramyl peptides and processes for their manufacture” (Ciba Geigy Corporation, priority 1982, dated 1985).

Assays:
Alveolar rat macrophages = assay: macrophage activation: cytotoxicity of alveolar rat macrophages against 125I-marked tumour cells; assay type: cell-based
Procedure: Alveolar rat macrophages are obtained by lung washing, plated out and incubated in vitro for 24 hours either with liposomes that are charged with the active ingredient, or with the active ingredient in physiological salt solution (phosphate buffered saline, PBS), ^125 I-marked tumour cells are added and incubation is continued for a further 72 hours. Subsequently the dead tumour cells are washed away and the number of tumour cells still living is determined on the basis of their radioactivity. […] The specific cytotoxicity [%] is calculated as follows: [formula]
Further details of the above-mentioned test method are described in I. J. Fidler et. al., J. Biol. Response Modifiers 1, 43-55 (1982).

[1] = test for pyrogenity in rabbits (European Pharmacopoeia); assay type: in vivo; conditions: subcutaneous administration, 30 mg/kg
Source text: The test for pyrogenity can be carried out in rabbits in accordance with the instructions given in European Pharmacopoeia, Vol. 2, pages 56-59 (1971).

[2] = Active ingredient in 100 μg of lipsomes per 0.2 ml, 0.2 μg/culture
[3] = Active ingredient in 100 μg of lipsomes per 0.2 ml, 2 μg/culture
[4] = Active ingredient in 100 μg of lipsomes per 0.2 ml, 20 μg/culture
[5] = Active ingredient in 0.2 ml of PBS, 0.2 μg/culture
[6] = Active ingredient in 0.2 ml of PBS, 2 μg/culture
[7] = Active ingredient in 100 μg of lipsomes per 0.2 ml, 0.02 μg/culture
[8] = Active ingredient in 0.2 ml of PBS, 0.02 μg/culture

CCCCCCCCCCCCCCCC(=O)OC[C@H](COP(=O)([O-])OCCNC(=O)[C@H](C)NC(=O)CC[C@@H](NC(=O)[C@H](C)NC(=O)[C@@H](C)O[C@H]1[C@H](O)[C@@H](CO)OC(O)[C@@H]1NC(C)=O)C(=O)OCCCC)OC(=O)CCCCCCCCCCCCCCC.[Na+] (stereo partly drawn) [Active ingredient I, the sodium salt of N-acetylmuramyl-L-alanyl-D-glutamyl-(Cα)-n-butyl ester-(Cγ)-L-alanine-2-(1,2-dipalmitoyl-sn-glycero-3-hydroxyphosphoryloxy)-ethylamide]
Specific cytotoxity [%] (Alveolar rat macrophages; [2]): 56% | Specific cytotoxity [%] (Alveolar rat macrophages; [3]): 51% | Specific cytotoxity [%] (Alveolar rat macrophages; [4]): 44% | Specific cytotoxity [%] (Alveolar rat macrophages; [5]): 39% | Specific cytotoxity [%] (Alveolar rat macrophages; [6]): 59% | pyrogenic effect [1]: no pyrogenic effect

the sodium salt of N--acetylmuramyl-L-valyl-D-glutamyl-(C α)-n-butyl ester-(Cγ)-L-alanine-2-(1,2-dipalmitoyl-sn-glycero-3-hydroxyphosphoryloxy)-ethylamide [compound IV]
Specific cytotoxity [%] (Alveolar rat macrophages; [7]): 64% | Specific cytotoxity [%] (Alveolar rat macrophages; [2]): 68% | Specific cytotoxity [%] (Alveolar rat macrophages; [3]): 52% | Specific cytotoxity [%] (Alveolar rat macrophages; [8]): 23% | Specific cytotoxity [%] (Alveolar rat macrophages; [5]): 18% | Specific cytotoxity [%] (Alveolar rat macrophages; [6]): 20%

the sodium salt of N--acetylmuramyl-L-α-aminobutyryl-D-glutamyl-(Cα)-n-butyl ester-(Cγ)-L-alanine-2-(1,2-dipalmitoyl-sn-glycero-3-hydroxyphosphoryloxy)-ethyl-amide [compound II]
Specific cytotoxity [%] (Alveolar rat macrophages; [2]): 10% | Specific cytotoxity [%] (Alveolar rat macrophages; [3]): 23% | Specific cytotoxity [%] (Alveolar rat macrophages; [4]): 11% | Specific cytotoxity [%] (Alveolar rat macrophages; [5]): 21% | Specific cytotoxity [%] (Alveolar rat macrophages; [6]): 48% | Specific cytotoxity [%] (Alveolar rat macrophages; Active ingredient in 0.2 ml of PBS, 20 μg/culture): 74%

the sodium salt of N-propionylnormuramyl-L-alanyl-D-glutamyl-(Cα)-n-butyl ester-(Cγ)-L-alanine-2-(1,2-dipalmitoyl-sn-glycero-3-hydroxyphosphoryloxy)-ethylamide [Active ingredient II]
Specific cytotoxity [%] (Alveolar rat macrophages; [7]): 64% | Specific cytotoxity [%] (Alveolar rat macrophages; [2]): 76% | Specific cytotoxity [%] (Alveolar rat macrophages; [3]): 79% | Specific cytotoxity [%] (Alveolar rat macrophages; [8]): 3% | Specific cytotoxity [%] (Alveolar rat macrophages; [5]): 81% | Specific cytotoxity [%] (Alveolar rat macrophages; [6]): 47%

CCCCCCCCCCCCCCCC(=O)OCC(COP(=O)([O-])OCCNC(=O)C(C)NC(=O)CCC(NC(=O)C(C)NC(=O)C(C)OC1C(O)C(CO)OC(O)C1NC(C)=O)C(N)=O)OC(=O)CCCCCCCCCCCCCCC.[Na+] [sodium salt of N-acetylmuramyl-L-alanyl-D-isoglutaminyl-L-alanine-2-(1,2-dipalmitoyl-sn-glycero-3-hydroxyphosphoryloxy)-ethylamide, reference compound]
pyrogenic effect [1]: highly pyrogenic
